Measured values from PubChem BioAssay (NCI).
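Exposure lasted 48 hours, with cells grown in 96-well plates and compounds tested at five concentrations. Abbreviation: GI50, concentration required for 50% inhibition of growth. Definition used: TGI = concentration required for complete inhibition of growth.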

Key:
Experiment in all cases: NCI anticancer screen, dose series, 48 h
[1] = tested on: HCT-116 colon
[2] = tested on: HT29 colon
[3] = tested on: K-562 leukemia
[4] = tested on: LOX IMVI melanoma
[5] = tested on: SF-539 CNS
[6] = tested on: SK-MEL-5 melanoma
[7] = tested on: SK-OV-3 ovarian
[8] = tested on: SN12C renal
[9] = tested on: UO-31 renal

Row | Compound | TGI [1] [µM] | TGI [2] [µM] | TGI [3] [µM] | TGI [4] [µM] | TGI [5] [µM] | TGI [6] [µM] | TGI [7] [µM] | TGI [8] [µM] | TGI [9] [µM] | GI50 [3] [µM] | GI50 [4] [µM]
1 | Cc1ccc(S(=O)(=O)N/N=C2/CCC(C(C)(C)C)CC2Br)cc1 (centres undefined) | 51.5 | 88.9 | 40.1 | 30.5 | 50.4 | 29.5 | > 100 | 32.4 | 33.4 | – | –
2 | COc1c(C)c(C/C=C(\C)CC/C=C(\C)CC/C=C(\C)CCC=C(C)C)c(OC)c2ccccc12 | > 100 | > 100 | > 100 | > 100 | > 100 | > 100 | > 100 | > 100 | > 100 | – | –
3 | Nc1nc(=O)n(C2OC(CO)C(O)C2O)c2ncc(-c3ccc(-c4ccccc4)cc3)nc12 (centres undefined) | > 100 | > 100 | > 100 | > 100 | > 100 | > 100 | > 100 | > 100 | > 100 | – | –
4 | Cc1cc(N(CCC#N)CCC#N)ccc1/C=C1\SC(=S)NC1=O | > 100 | > 100 | > 100 | > 100 | > 100 | > 100 | > 100 | > 100 | > 100 | – | –
5 | CCOc1ccc(/C=C2\NC(=S)N(/C=C3\C(=O)Oc4ccccc4C3=O)C2=O)cc1 | 39.9 | 82.1 | – | 87.5 | 36.5 | 41.5 | 38.8 | 45.3 | 49.4 | – | –
6 | COC(=O)NC(Cc1ccccc1)NC(C)=O (centres undefined) | > 100 | > 100 | > 100 | > 100 | > 100 | > 100 | > 100 | > 100 | > 100 | – | –
7 | Cc1cc2oc(C)c(S(=O)(=O)NC(=O)Nc3ccc(Cl)cc3)c(=O)c2c(=O)o1 | > 100 | > 100 | > 100 | > 100 | > 100 | > 100 | > 100 | > 100 | > 100 | – | –
8 | COc1c2ccsc2c(OC)c2ccsc12 | > 100 | > 100 | > 100 | > 100 | > 100 | > 100 | > 100 | > 100 | > 100 | – | –
9 | CCOC(=O)C(NC(=O)CC)(Nc1ccc(F)c(Cl)c1)C(F)(F)F (centres undefined) | > 100 | > 100 | > 100 | > 100 | > 100 | > 100 | > 100 | > 100 | > 100 | – | –
10 | O=C(c1ccc(O)c([N+](=O)[O-])c1)c1ccc(O)c([N+](=O)[O-])c1 | > 100 | > 100 | > 100 | > 100 | > 100 | > 100 | > 100 | > 100 | > 100 | – | –
11 | Cc1ccc2c(C(=O)c3c(C)n(CCN4CCOCC4)c4ccccc34)cccc2c1 | 40.9 | 25.6 | > 100 | 42.1 | 12.8 | 13 | 61 | > 100 | > 100 | – | –
12 | COC(=O)c1cccc(OC)c1C#Cc1c(OC)cccc1OC | > 100 | > 100 | > 100 | > 100 | > 100 | > 100 | > 100 | > 100 | > 100 | – | –
13 | Cc1cc(N2CCCC2)c([N+](=O)[O-])cc1[N+](=O)[O-] | > 100 | > 100 | > 100 | > 100 | > 100 | > 100 | > 100 | > 100 | > 100 | – | –
14 | C=Cc1nc(C#N)c(N)o1 | > 100 | > 100 | > 100 | > 100 | > 100 | > 100 | > 100 | > 100 | > 100 | – | –
15 | CC(=O)Oc1cc(OC(C)=O)c2c(C)cc(=O)oc2c1 | > 100 | > 100 | > 100 | > 100 | > 100 | > 100 | > 100 | > 100 | > 100 | – | –
16 | COC1(c2cccs2)c2ccccc2C(OC)(c2cccs2)c2ccccc21 (centres undefined) | > 100 | > 100 | > 100 | > 100 | > 100 | > 100 | > 100 | > 100 | > 100 | – | –
17 | CCOC(=O)c1[nH]c2cccc3c2c1CC[C@H](NC(=O)C(F)(F)F)C3=O | > 100 | > 100 | > 100 | > 100 | > 100 | > 100 | – | > 100 | > 100 | – | –
18 | COC(=O)c1ccccc1C1=C([N+](=O)[O-])C(c2ccccc2)C(C#N)=C(N)O1 (centres undefined) | > 100 | > 100 | > 100 | > 100 | > 100 | > 100 | > 100 | > 100 | – | – | –
19 | CC1=CCC[C@H]2[C@](C)(CC3=CC(=O)C(Sc4ccccc4)=CC3=O)[C@@H](C)CC[C@]12C | 30.3 | – | 41.2 | 26.4 | 34.6 | 30.9 | – | 31.6 | 29.1 | 19.5 | 13.6
20 | COC(=O)C1=CON2C3CC4CC(C3)CC(C4)C12C (centres undefined) | > 100 | > 100 | > 100 | > 100 | > 100 | > 100 | > 100 | > 100 | > 100 | – | –
21 | CN(C)CCNC(=O)c1ccc(Cl)c2cc3ccccc3nc12 | 5.48 | 4.9 | 12.3 | 1.4 | 3.28 | 2.44 | 12.8 | 4.18 | 11 | – | –
22 | N#CC[N+]1(Cc2ccccn2)CCCC1 | > 100 | > 100 | > 100 | > 100 | > 100 | > 100 | > 100 | > 100 | > 100 | – | –
23 | CN(C)CC1CCC/C(=C\c2ccc(OC(=O)/C=C/c3ccc(Cl)c(Cl)c3)cc2)C1=O (centres undefined) | 14.5 | 4.68 | > 100 | 4.01 | 7.19 | 12.2 | > 100 | 5.64 | 13.9 | – | –
